Reference: patent US20090054368A1, “Substituted gemini surfactant compounds” (University of Saskatchewan, priority 2007, published 2009)
Several values for one entry are separate records, joined by “and”; a condition that tells them apart may be missing. Identical values can stand only once. Entries after “also recorded” stand apart in the source; their conditions may differ.

How the values were obtained:
[1] = Small angle X-ray scattering (SAXS) of plasmid DNA-gemini surfactant-DOPE complexes; format: physicochemical; settings: for d-spacing of main scattering peak / phase / morphology of lipid bilayers from scattering pattern (in words) / d-spacing of adjacent DNA molecules: plasmid DNA-gemini surfactant-DOPE complexes; for d-spacing of adjacent DNA molecules: weak peaks at q=0.172 Å^−1; for scattering peak position q, DNA: scattering from adjacent DNA molecules
Experimental: SAXS measurements were carried out at beamline X21 at the National Synchrotron Light Source at Brookhaven National Laboratory. Beamline X21 is based on a wiggler source, with a helium gas-cooled Si(111) monochromator selecting the photon energy. The X-ray beam is focused by a toroidal mirror into the experimental station. Three pairs of precision slits, positioned at 4 m, 1 m, and 5 cm upstream of the sample, define the beam. The scattering pattern is recorded using a 13 cm Mar CCD detector (Mar USA, Evanston, Ill.) located 1.26 m (calibrated with the scattering pattern of silver behenate) downstream of the sample. The measurements were performed with 12 KeV x-rays and the data covered a q-range from 0.008 Å^−1 to 0.375 Å^−1. All beam paths are under vacuum, except at the sample position, where the sample is in air, and kapton windows terminate the vacuum beam paths. Samples were loaded into 1.5 mm capillaries (Charles Supper #15-BG, Natick Mass.) and data recorded at room temperature. All spectra were processed to remove background contributions by subtracting the scattering profile obtained for a water-filled capillary. Peak fitting was carried out using the open-sources software package “fityk” (available at http://www.unipress.waw.pl/fityk/; last accessed on Jul. 5, 2007) using multiple Gaussian functions.
Solutions for SAXS analysis were prepared by addition of appropriate amounts of stock surfactant, DNA, and DOPE solutions, followed by sonication (to ensure complete mixing) where appropriate. The pGTmCMV.IFN-GFP plasmid DNA was used in the SAXS studies. The final concentrations of DNA and DOPE were 0.075 mM (50 μg/mL) and 1.00 mM (0.75 mg/mL), respectively. The concentration of gemini surfactant was adjusted as needed to obtain the desired 1:10 DNA:surfactant charge ratio. Preliminary x-ray scattering studies indicated these concentrations to be too dilute to give good scattering signals; as a result, the samples were concentrated 5× by evaporation.

[2] = from reference [24]; cited from earlier work
[3] = Average membrane charge density calculation for plasmid DNA-gemini surfactant-DOPE nanoparticles; format: physicochemical; settings: calculated from head group areas
[4] = system: COS-7 African Green monkey kidney fibroblast cells; experiment: Transfection assay (luciferase production after transfection with plasmid DNA-gemini surfactant complexes); format: cell-based; settings: PGL complexes, with DOPE added
Experimental: COS-7 African Green monkey kidney fibroblast cells (ATCC CRL1651) were prepared for transfection in antibiotic and 10% fetal bovine serum supplemented minimal Eagle's medium (MEM). The day before transfection, 5×10^4 cells/well were seeded in 24-well plates (Greiner Labortechnik GmbH, Germany). The supplemented MEM was changed to MEM one hour prior to transfection.
The pMASIA.Luc plasmid DNA was used at a concentration of 0.2 μg/well for transfection. The transfection mixtures were prepared as follows: 0.2 μg of plasmid DNA was mixed with aliquots of gemini surfactant solution to obtain a plasmid DNA:gemini surfactant charge ratio of 1:10 and incubated at room temperature for 15 minutes. To this mixture, 25 μL of DOPE liposomes were added. The transfection mixtures were incubated for 30 minutes at room temperature prior to transfection and added to the cells, dropwise. The plates were incubated for 5 hours at 37° C. in a CO2 incubator. Dc-Chol (30-[N—(N′,N′-Dimethylaminoethane)-carbamoyl]cholesterol) was used for comparison and, as a positive control, cells were also transfected with Lipofectamine Plus™ Reagent (Invitrogen Life Technologies, Carlsbad, Calif.), according to the manufacturer's protocol, with 0.2 μg of plasmid DNA per well.
Luciferase production was quantified using the Promega Steady-Glo™ luciferase assay system. Luminescence was monitored using a Turner Biosystems (Sunnyvale, Calif., USA) Reporter microplate luminometer. Statistical analysis was performed using ANOVA and Tukey's multiple comparison test. […] Equal variances were tested using Bartlett's test, and normality by the D'Agostino & Pearson omnibus normality test.

cultured cells = experiment: Viability of cells following transfection; format: cell-based; settings: after transfection with plasmid DNA-gemini surfactant-DOPE or Lipofectamine Plus; relative to controls (no treatment or plasmid DNA alone)
Experimental: Ideal transfection reagents are minimally toxic and/or disruptive to cells. Accordingly, the N-substituted surfactants were tested for toxicity in cultured cells. The viability of cells following transfection with either plasmid DNA-gemini surfactant-DOPE or Lipofectamine Plus are shown in FIG. 3. The aza-substituted surfactants 12-5N-12, 12-8N-12, and 12-7N-12 had similar toxicity compared to the Lipofectamine Plus reagent, with cell viability around 80% of the controls (i.e., no treatment or plasmid DNA alone; p>0.05).

[5] = system: COS-7 African Green monkey kidney fibroblast cells; experiment: Transfection assay (luciferase production after transfection with plasmid DNA-gemini surfactant complexes); format: cell-based; settings: PG complexes, complexed with DNA in the absence of helper lipid (DOPE)
[6] = Size (hydrodynamic radius) and zeta potential as a function of pH; format: physicochemical; settings: PGL complexes
Experimental: Determinations of size (hydrodynamic radius, RH) and zeta potential (ζ) as a function of pH were carried out using a Malvern Instruments (Worcestershire, UK) ZetaSizer NanoZs with MPT-2 auto-titrator attachment. 10 mL of the desired sample was placed in the titration cell of the auto-titrator and samples were titrated (in 0.2-0.5 pH unit increments) with 0.1 M NaOH and 0.1 M HCl over the desired pH range. Size and zeta potential measurement were made in triplicate at each pH point, and the reported values represent the average±standard error. pH titrations of aqueous gemini surfactant solutions were made at a surfactant concentration of 2.00 mM, above the critical micelle concentration in all cases.
Solutions for size, zeta potential, and circular dichrosicm (CD) measurements were prepared, in larger volumes, as described above for the transfection experiments using a pGTmCMV.IFN-GFP plasmid DNA, previously constructed in our lab. Solutions containing only surfactant and plasmid DNA were prepared by addition of an aliquot of stock plasmid DNA to the gemini surfactant solution to a charge ratio of 1:10 (DNA:surfactant).

[7] = previous work [11]; cited from earlier work
DNA = experiment: Binding constant between py-s-12 surfactants and DNA from changes in the UV spectrum of the pyrene moiety; design: species or system salmon; settings: estimated from changes in the UV spectrum of the pyrene moiety
Description: Similar to a series of peptide substituted pyrene compounds described in [51], the S1-S0, S2-S0, and S3-S0 transitions have lambdamax values of 376, 343, and 276 nm, respectively. The broadening of the absorbance bands of pyrene, the red shift in the absorbance band, and the observed hyperchromism in the presence of DNA are evidence of complexed pyrene compounds Quantitative estimates of the binding constants between py-s-12 surfactants and DNA were obtained by monitoring changes in the UV spectrum of the pyrene moiety. The binding constant for py-3-12 and DNA was estimated to be 5.9×10^3 L mol^−1 and that of py-6-12 was 1.9×10^4 L mol^−1. The stronger binding of py-6-12 to DNA implied that the distance between the cationic head groups is more suitable to electrostatically bind to DNA.
Pyrene, 6-bromohexanoyl chloride, anhydrous aluminum chloride, triethylsilane, trifluoroacetatic acid, N,N,N′,N′-tetramethylpropanediamine, N,N,N′,N′-tetramethylhexanediamine, and 1-bromododecane were purchased from Aldrich Inc. All solutions were prepared using analytical-grade water obtained from a Millipore Milli-Q filtration system. The sodium salt of double-stranded (ds) salmon sperm DNA (about 2 kbp, as stated by the manufacturer, Sigma) was used as received. […]

[8] = plasmid DNA-gemini surfactant-DOPE systems

Row | d-spacing of main scattering peak [1] [Å] | phase / morphology of lipid bilayers from scattering pattern (in words) [1] | scattering peak position q, lamellar (L) phase [1, 8] | scattering peak position q, DNA [1, 8] | membrane charge density σM [3] | Compound | Head group area a0 [2] [nm^2/molecule] | transfection efficiency (in words) [4] | cell viability (cultured cells) | transfection efficiency (in words) [5] | also measured
1 | 61.7 | lamellar (L) phase | 0.203 (L) Å^−1 and 0.102 Å^−1 | 0.172 Å^−1 | 1.43 ×10^−2 e/Å^2 | CCCCCCCCCCCC[N+](C)(C)CC[N+](C)(C)CCCCCCCCCCCC.[Br-].[Br-] [12-2-12, reference compound] | 0.89 ± 0.05 |  |  |  | d-spacing of adjacent DNA molecules [1]: 36.5 Å
2 | 58.6 | lamellar (L) phase | 0.107 Å^−1 and 0.207 (L) Å^−1 | 0.172 Å^−1 and 0.173 Å^−1 | 1.05 ×10^−2 e/Å^2 | CCCCCCCCCCCC[N+](C)(C)CCN(C)CC[N+](C)(C)CCCCCCCCCCCC [12-5N-12] | 1.30 ± 0.03 | enhanced transfection efficiency compared to the un-substituted surfactant, 12-3-12; also recorded: higher levels of transfection efficiency compared to the non-substituted gemini surfactant 12-3-12 | around 80% | similarly low transfection efficiency compared to 12-3-12 | d-spacing of adjacent DNA molecules [1]: 36.5 Å; transfection efficiency (in words) ([4]; listed as 125N-12): less efficient in DNA transfection
3 | 59.6 |  |  |  | 0.748 ×10^−2 e/Å^2 | CCCCCCCCCCCC[N+](C)(C)CCCN(C)CCC[N+](C)(C)CCCCCCCCCCCC.[Br-].[Br-] [12-7N-12, 1,9-bis(dodecyl)-1,1,5,9,9-pentamethyl-5-aza-1,9,-nonanediammonium dibromide] | 2.06 ± 0.20 | enhanced transfection efficiency compared to the un-substituted surfactant, 12-3-12; also recorded: higher levels of transfection efficiency compared to the non-substituted gemini surfactant 12-3-12; also recorded: most efficient aza-substituted surfactant; also recorded: highest | around 80% | similarly low transfection efficiency compared to 12-3-12 | pH dependence of particle size (in words) [6]: remained essentially unchanged; pH dependence of zeta potential (in words) [6]: increased as a function of decreasing pH
4 |  |  |  |  |  | CCCCCCCCCCCC[N+](C)(C)CCCCCCCC[N+](C)(C)CCCCCCCCCCCC.[Br-].[Br-] [12-8-12] |  |  |  |  | transfection efficiency within the 12-s-12 series, s=3-8 (in words) [7]: lowest
5 | 59.6 | lamellar structure | 0.105 Å^−1 and 0.210 (L) Å^−1 | 0.170 Å^−1 and 0.169 (DNA), Å^−1 | 0.780 ×10^−2 e/Å^2 | CCCCCCCCCCCC[N+](C)(C)CCN(C)CCN(C)CC[N+](C)(C)CCCCCCCCCCCC [12-8N-12] | 1.95 ± 0.13 |  | around 80% | similarly low transfection efficiency compared to 12-3-12 | scattering peak position q, no phase assigned [1, 8]: 0.119 Å^−1
6 |  |  |  |  |  | CCCCCCCCCCCC[N+](C)(C)CCC[N+](C)(C)CCCCCCc1ccc2ccc3cccc4ccc1c2c34.[Br-].[Br-] [py-3-12, N1-dodecyl,N1,N1,N3,N3-tetramethyl-N3-(6-(pyren-6-yl)-hexyl)propane-1,3-diammonium dibromide] |  |  |  |  | binding constant with DNA (DNA): 5900 L/mol
7 |  |  |  |  |  | CCCCCCCCCCCC[N+](C)(C)CCCCCC[N+](C)(C)CCCCCCc1ccc2ccc3cccc4ccc1c2c34.[Br-].[Br-] [py-6-12, N1-dodecyl,N1,N1,N6,N6-tetramethyl-N6-(6-(pyren-6-yl)-hexyl)hexane-1,6-diammonium dibromide] |  |  |  |  | binding constant with DNA (DNA): 19000 L/mol

Row | Compound | d-spacing of main scattering peak [1] [Å] | phase / morphology of lipid bilayers from scattering pattern (in words) [1] | scattering peak position q, lamellar (L) phase [1, 8] | scattering peak position q, DNA [1, 8] | membrane charge density σM [3] | Head group area a0 [2] [nm^2/molecule] | transfection efficiency (in words) [4] | cell viability (cultured cells) | transfection efficiency (in words) [5] | also measured
8 | CCCCCCCCCCCC[N+](C)(C)CC(O)C(O)C[N+](C)(C)CCCCCCCCCCCC.[Br-].[Br-] (stereo not drawn) [12-4(OH)2-12] |  | mixed lamellar, hexagonal, and cubic phases |  |  |  |  | enhanced transfection efficiency compared to 12-3-12; also recorded: higher levels of transfection efficiency compared to the non-substituted gemini surfactant 12-3-12 |  |  | 
9 | CCCCCCCCCCCC[N+](C)(C)CCOCC[N+](C)(C)CCCCCCCCCCCC.[Br-].[Br-] [12-E01-12] |  | mixed lamellar, hexagonal, and cubic phases |  |  |  |  | enhanced transfection efficiency compared to 12-3-12; also recorded: higher levels of transfection efficiency compared to the non-substituted gemini surfactant 12-3-12 |  |  | 
